These molecules were tested on IRE1-XBP1s (HEK293 T-REx cells stably expressing the XBP1-RLuc splicing reporter) (assay: IRE1-XBP1s activation Assay (XBP1-RLuc splicing reporter, luminescence relative to thapsigargin, with or without IRE1 inhibitor 4μ8C)). Conditions: 18 h, compound 10 μM, luminescence as percentage signal relative to thapsigargin (Tg) (500 nM, 18 h).
Type: cell-based
Description: IRE1-XBP1s activation Assay: HEK293 T-REx cells stably expressing the XBP1-RLuc splicing reporter were treated with an IRE1-XBP1s activator provided herein (10 μM) in the presence or absence of the IRE1 active site inhibitor 4μ8C (32 μM) for 18 h. Luminescence was shown as the percentage signal relative to thapsigargin (Tg) (500 nM, 18 h).

First: Cc1ccc(OCCN(C)C(=O)Cn2cc(NC(=O)C3CC(Oc4ccncc4)C3)cn2)cc1 (stereo not shown) [Compound 139, N-(1-(2-(methyl (2-(p-tolyloxy)ethyl)amino)-2-oxoethyl)-1H-pyrazol-4-yl)-3-(pyridin-4-yloxy)cyclobutane-1-carboxamide]
Second: Cc1ccc(OCCN(C)C(=O)Cn2cc(NC(=O)C3CC(Oc4ccncc4)CCO3)cn2)cc1 (stereo not shown) [Compound 141]
The activation at 10 µM of the first is higher: ≥ 50% for the first, < 30% for the second.

Going from `Cc1ccc(OCCN(C)C(=O)Cn2cc(NC(=O)C3CC(Oc4ccccn4)C3)cn2)cc1` (stereo not shown) [Compound 140] to `Cc1ccc(OCCN(C)C(=O)Cn2cc(NC(=O)C3CC(Oc4cccc(C)n4)C3)cn2)cc1` (stereo not shown) [Compound 142], the activation at 10 µM falls from ≥ 50% to < 30%.

`Cc1ccc(OC2CCC23CN(C(=O)Cn2cc(NC(=O)C4CC(Oc5ccncc5)C4)cn2)C3)cc1` (stereo not shown) [Compound 144] and `Cc1ccc(O[C@H]2CCCN(C(=O)Cn3cc(NC(=O)C4CC(Oc5ccncc5)C4)cn3)C2)cc1` (stereo partly shown) [Compound 152] cannot be ordered by activation at 10 µM: ≥ 50% for the first, ≥ 50% for the second.

`O=C(Cn1cc(NC(=O)[C@H]2C[C@H](Oc3ccccn3)C2)cn1)N1CCC[C@H](Oc2ccc(C(F)(F)F)cn2)C1` [Compound 145] and `O=C(Nc1cnn(CC(=O)N2CCC[C@H](Oc3ccc(C(F)(F)F)cn3)C2)c1)[C@H]1COc2ccccc2O1` [Compound 188, (R)—N-(1-(2-oxo-2-((S)-3-((5-(trifluoromethyl)pyridin-2-yl)oxy)piperidin-1-yl)ethyl)-1H-pyrazol-4-yl)-2,3-dihydrobenzo[b][1, 4]dioxine-2-carboxamide] cannot be ordered by activation at 10 µM: < 30% for the first, < 30% for the second.

`Cc1ccc(O[C@H]2CCCN(C(=O)Cn3cc(NC(=O)COc4ccccc4)cn3)C2)cc1` [Compound 146, N-[1-[2-[(3S)-3-(4-methylphenoxy)-1-piperidyl]-2-oxo-ethyl]pyrazol-4-yl]-2-phenoxy-acetamide] and `Cc1ccc(O[C@H]2CCCN(C(=O)Cn3cc(NC(=O)COc4cccnc4)cn3)C2)cc1` [Compound 149] cannot be ordered by activation at 10 µM: < 30% for the first, < 30% for the second.

`Cc1ccc(O[C@H]2CCCN(C(=O)Cn3cc(NC(=O)C4COc5ccccc5O4)cn3)C2)cc1` (stereo partly shown) [Compound 147] and `Cc1ccc(O[C@H]2CCCN(C(=O)Cn3cc(NC(=O)[C@@H]4COc5ccccc5O4)cn3)C2)cc1` [Compound 185] cannot be ordered by activation at 10 µM: < 30% for the first, < 30% for the second.

First: Cc1ccc(O[C@H]2CCCN(C(=O)Cn3cc(NC(=O)COc4ccccn4)cn3)C2)cc1 [Compound 150]
Second: Cc1ccc(O[C@@H]2CCCN(C(=O)Cn3cc(NC(=O)CCNc4ccnc(F)n4)cn3)C2)cc1 [Compound 176]
The activation at 10 µM of the first is lower: < 30% for the first, 30 to 50% for the second.

`Cc1ccc(O[C@H]2CCCN(C(=O)Cn3cc(NC(=O)C4CC(Oc5cccc(C)n5)C4)cn3)C2)cc1` (stereo partly shown) [Compound 151] and `Cc1ccc(O[C@H]2CCCN(C(=O)Cn3cc(NC(=O)C4COc5ccccc5N4)cn3)C2)cc1` (stereo partly shown) [Compound 155] cannot be ordered by activation at 10 µM: < 30% for the first, < 30% for the second.

`Cc1ccc(OCCN(C)C(=O)Cn2cc(NC(=O)c3nc4ccccc4o3)cn2)cc1` [Compound 153] and `Cc1ccc(OCCN(C)C(=O)Cn2cc(NC(=O)C3COc4ccccc4O3)cn2)cc1` (stereo not shown) [Compound 154] cannot be ordered by activation at 10 µM: 30 to 50% for the first, ≥ 50% for the second.

Compared with `Cc1ccc(OCCN(C)C(=O)Cn2cc(NC(=O)[C@@H]3COc4ccccc4O3)cn2)cc1` [Compound 156], `[2H]C([2H])([2H])c1ccc(OCCN(C)C(=O)Cn2cc(NC(=O)C3COc4ccccc4O3)cn2)cc1` (stereo not shown) [Compound 200] is higher in activation at 10 µM: < 30% for the first, ≥ 50% for the second.

First: COc1ncc(Cl)cc1NCCC(=O)Nc1cnn(CC(=O)N2CCC[C@H](Oc3ccc(C)cc3)C2)c1 [Compound 157]
Second: COc1ncc(Cl)cc1NCCC(=O)Nc1cnn(CC(=O)N2CCC[C@@H](Oc3ccc(C)cc3)C2)c1 [Compound 158]
The activation at 10 µM of the first is higher: ≥ 50% for the first, < 30% for the second.

`Cc1ccc(O[C@H]2CCCN(C(=O)Cn3cc(NC(=O)CCOc4c(F)ccnc4C(C)C)cn3)C2)cc1` [Compound 159, (S)-3-((4-fluoro-2-isopropylpyridine-3-yl)oxy)-N-(1-(2-oxo-2-(3-(p-tolyloxy)piperidin-1-yl)ethyl)-1H-pyrazol-4-yl)propanamide] and `Cc1ccc(O[C@H]2CCCN(C(=O)Cn3cc(NC(=O)CCOc4ncncc4N)cn3)C2)cc1` [Compound 164, (S)-3-((5-aminopyrimidin-4-yl)oxy)-N-(1-(2-oxo-2-(3-(p-tolyloxy)piperidin-1-yl)ethyl)-1H-pyrazol-4-yl)propanamide] cannot be ordered by activation at 10 µM: ≥ 50% for the first, ≥ 50% for the second.

`CC(C)c1cncc(F)c1OCCC(=O)Nc1cnn(CC(=O)N2CCC[C@H](Oc3ccc(OC(F)(F)F)cn3)C2)c1` [Compound 160] and `CC(C)c1cncc(F)c1OCCC(=O)Nc1cnn(CC(=O)N2CCC[C@H](Oc3ccc(C(F)(F)F)cn3)C2)c1` [Compound 161] cannot be ordered by activation at 10 µM: 30 to 50% for the first, ≥ 50% for the second.

First: Cc1ccc(OCCN(C)C(=O)Cn2cc(NC(=O)[C@H]3C[C@H](Oc4c(F)cncc4C(C)C)C3)cn2)cc1 [Compound 162]
Second: Cc1ccc(OC2CCC23CN(C(=O)Cn2cc(NC(=O)C4CC(Oc5c(F)cncc5C(C)C)C4)cn2)C3)cc1 (stereo not shown) [Compound 163]
The activation at 10 µM of the first is lower: < 30% for the first, ≥ 50% for the second.

`Cc1ccc(O[C@H]2CCCN(C(=O)Cn3cc(NC(=O)CCOc4c(Br)cncc4[N+](=O)[O-])cn3)C2)cc1` [Compound 165] and `Cc1ccc(O[C@H]2CCCN(C(=O)Cn3cc(NC(=O)CCNc4c(F)cncc4Cl)cn3)C2)cc1` [Compound 183] cannot be ordered by activation at 10 µM: ≥ 50% for the first, ≥ 50% for the second.

Compared with `Cc1ccc(OCCN(C)C(=O)Cn2cc(NC(=O)C3CCCC3Nc3ccnc(F)n3)cn2)cc1` (stereo not shown) [Compound 166], `Cc1ccc(OCCN(C)C(=O)Cn2cc(NC(=O)C3CCC3Nc3ccnc(F)n3)cn2)cc1` (stereo not shown) [Compound 167] is higher in activation at 10 µM: < 30% for the first, 30 to 50% for the second.

`Cc1ccc(OCCN(C)C(=O)Cn2cc(NC(=O)C34CC(Nc5ncc(F)cn5)(C3)C4)cn2)cc1` [Compound 169, 3-[(5-fluoropyrimidin-2-yl)amino]-N-[1-[2-[methyl-[2-(4-methylphenoxy)ethyl]amino]-2-oxo-ethyl]pyrazol-4-yl]bicyclo[1.1.1]pentane-1-carboxamide] and `Cc1ccc(OCCN(C)C(=O)Cn2cc(NC(=O)C3CC(Nc4ncc(F)cn4)C3)cn2)cc1` (stereo not shown) [Compound 170] cannot be ordered by activation at 10 µM: < 30% for the first, < 30% for the second.

Going from `Cc1ccc(OC2CCCCN(C(=O)Cn3cc(NC(=O)CCNc4ccnc(F)n4)cn3)C2)cc1` (stereo not shown) [Compound 171, 3-[(2-fluoropyrimidin-4-yl)amino]-N-[1-[2-[3-(4-methylphenoxy)azepan-1-yl]-2-oxo-ethyl]pyrazol-4-yl]propanamide] to `Cc1ccc(O[C@H]2CCCN(C(=O)Cn3cc(NC(=O)CCNc4ccnc(F)n4)cn3)C2)cc1` [Compound 178], the activation at 10 µM rises from < 30% to ≥ 50%.

`Cc1ccc(OC2CCCN(C(=O)Cn3cc(NC(=O)CCNc4ccnc(F)n4)cn3)CC2)cc1` (stereo not shown) [Compound 172] and `Cc1ccc(OC2CCC3(C2)CN(C(=O)Cn2cc(NC(=O)CCNc4ccnc(F)n4)cn2)C3)cc1` (stereo not shown) [Compound 175] cannot be ordered by activation at 10 µM: < 30% for the first, < 30% for the second.

`Cc1c(F)cc(O[C@@H]2CCCN(C(=O)Cn3cc(NC(=O)CCNc4ccnc(F)n4)cn3)C2)cc1F` [Compound 173] and `Cc1c(F)cc(O[C@H]2CCCN(C(=O)Cn3cc(NC(=O)CCNc4ccnc(F)n4)cn3)C2)cc1F` [Compound 180] cannot be ordered by activation at 10 µM: 30 to 50% for the first, ≥ 50% for the second.

`Cc1ccc(OC2CC3CC2N(C(=O)Cn2cc(NC(=O)CCNc4ccnc(F)n4)cn2)C3)cc1` (stereo not shown) [Compound 174] and `Cc1ccc(OC2CC3(C2)CN(C(=O)Cn2cc(NC(=O)CCNc4ccnc(F)n4)cn2)C3)cc1` [Compound 181] cannot be ordered by activation at 10 µM: < 30% for the first, < 30% for the second.

`Cc1ccc(OC2CCC23CN(C(=O)Cn2cc(NC(=O)CCNc4ccnc(F)n4)cn2)C3)cc1` (stereo not shown) [Compound 177] and `Cc1ccc(OC2CCCC23CN(C(=O)Cn2cc(NC(=O)CCOc4cccc(C)n4)cn2)C3)cc1` (stereo not shown) [Compound 196] cannot be ordered by activation at 10 µM: ≥ 50% for the first, ≥ 50% for the second.

Going from `O=C(CCNc1ccnc(F)n1)Nc1cnn(CC(=O)N2CCC[C@H](Oc3ccc(C(F)F)cc3)C2)c1` [Compound 179] to `O=C(CCNc1ccnc(F)n1)Nc1cnn(CC(=O)N2CCC[C@@H](Oc3ccc(C(F)F)cc3)C2)c1` [Compound 187], the activation at 10 µM falls from ≥ 50% to < 30%.

`Cc1ccc(O[C@@H]2CCCN(C(=O)Cn3cc(NC(=O)CCNc4c(F)cncc4Cl)cn3)C2)cc1` [Compound 184] and `Cc1ccc(OC2CCC23CCN(C(=O)Cn2cc(NC(=O)CCOc4cccc(C)n4)cn2)C3)cc1` (stereo not shown) [Compound 195, 3-((6-methylpyridin-2-yl)oxy)-N-(1-(2-oxo-2-(1-(p-tolyloxy)-6-azaspiro[3.4]octan-6-yl)ethyl)-1H-pyrazol-4-yl)propanamide] cannot be ordered by activation at 10 µM: ≥ 50% for the first, ≥ 50% for the second.

Compared with `O=C(Nc1cnn(CC(=O)N2CCC[C@H](Oc3ccc(C(F)(F)F)cn3)C2)c1)[C@@H]1COc2ccccc2O1` [Compound 189], `CN(CCOc1ccc(C(F)(F)F)cn1)C(=O)Cn1cc(NC(=O)[C@H]2COc3ccccc3O2)cn1` [Compound 192] is higher in activation at 10 µM: < 30% for the first, 30 to 50% for the second.

`CN(CCOc1ccc(C(F)(F)F)cn1)C(=O)Cn1cc(NC(=O)C2CNc3ccccc3O2)cn1` (stereo not shown) [Compound 191] and `Cc1ccc(OC2CCC23CN(C(=O)Cn2cc(NC(=O)C4CNc5ccccc5O4)cn2)C3)cc1` (stereo not shown) [Compound 193] cannot be ordered by activation at 10 µM: < 30% for the first, < 30% for the second.

`Cc1ccc(OC2CCC23CN(C(=O)Cn2cc(NC(=O)C4COc5ccccc5O4)cn2)C3)cc1` (stereo not shown) [Compound 197] and `Cc1ccc(OC2CCCC23CN(C(=O)Cn2cc(NC(=O)C4COc5ccccc5O4)cn2)C3)cc1` (stereo not shown) [Compound 199] cannot be ordered by activation at 10 µM: < 30% for the first, < 30% for the second.

In the case of `Cc1ccc(OC2CCCC23CN(C(=O)Cn2cc(NC(=O)C4CNc5ccccc5O4)cn2)C3)cc1` (stereo not shown) [Compound 198, N-(1-(2-oxo-2-(5-(p-tolyloxy)-2-azaspiro[3.4]octan-2-yl)ethyl)-1H-pyrazol-4-yl)-3,4-dihydro-2H-benzo[b][1, 4]oxazine-2-carboxamide], the activation at 10 µM is reported as < 30%.

Source: patent publication US20260193244A1 (Protego Biopharma, Inc., priority 2022, published 2026)
